# Measurements from PubChem BioAssay (NCI).
#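 All cell lines were grown in 96-well plates and treated with compound for 48 hours. GI50 = concentration required for 50% inhibition of growth. The concentration for full growth arrest is given as TGI.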
# What was measured:
# Assay in all cases: NCI tumour cell line growth inhibition, 48 h
# OVCAR-3 ovarian = tested on: OVCAR-3 ovarian
# MOLT-4 leukemia = tested on: MOLT-4 leukemia
# NCI-H522 lung = tested on: NCI-H522 lung
# ACHN renal = tested on: ACHN renal
# HOP-62 NSCLC = tested on: HOP-62 NSCLC
# M19-MEL melanoma = tested on: M19-MEL melanoma
# KM12 colon = tested on: KM12 colon
# SR leukemia = tested on: SR leukemia
# DLD-1 colon = tested on: DLD-1 colon
# DMS 273 small cell lung = tested on: DMS 273 small cell lung
# DMS 114 small cell lung = tested on: DMS 114 small cell lung
# CCRF-CEM leukemia = tested on: CCRF-CEM leukemia
# HL-60(TB) leukemia = tested on: HL-60(TB) leukemia
# SK-MEL-28 melanoma = tested on: SK-MEL-28 melanoma
# SF-268 CNS = tested on: SF-268 CNS
# NCI-H226 lung = tested on: NCI-H226 lung
# MALME-3M melanoma = tested on: MALME-3M melanoma
# SN12C renal = tested on: SN12C renal
# HCC-2998 colon = tested on: HCC-2998 colon
# RXF 393 renal = tested on: RXF 393 renal
# SNB-75 CNS = tested on: SNB-75 CNS
# LXFL 529 NSCLC = tested on: LXFL 529 NSCLC
# IGROV1 ovarian = tested on: IGROV1 ovarian
# HCT-15 colon = tested on: HCT-15 colon
# SK-MEL-5 melanoma = tested on: SK-MEL-5 melanoma
# SK-OV-3 ovarian = tested on: SK-OV-3 ovarian
# M14 melanoma = tested on: M14 melanoma
# HCT-116 colon = tested on: HCT-116 colon
# U251 CNS = tested on: U251 CNS
# NCI-H23 lung = tested on: NCI-H23 lung
# RXF-631 renal = tested on: RXF-631 renal
# XF 498 CNS = tested on: XF 498 CNS
# SNB-78 CNS = tested on: SNB-78 CNS
# SW-620 colon = tested on: SW-620 colon
# K-562 leukemia = tested on: K-562 leukemia
# CAKI-1 renal = tested on: CAKI-1 renal
# LOX IMVI melanoma = tested on: LOX IMVI melanoma
# OVCAR-8 ovarian = tested on: OVCAR-8 ovarian
# SK-MEL-2 melanoma = tested on: SK-MEL-2 melanoma
# RPMI-8226 leukemia = tested on: RPMI-8226 leukemia
# OVCAR-5 ovarian = tested on: OVCAR-5 ovarian
# UACC-257 melanoma = tested on: UACC-257 melanoma
# HOP-92 NSCLC = tested on: HOP-92 NSCLC
# SF-539 CNS = tested on: SF-539 CNS
# UACC-62 melanoma = tested on: UACC-62 melanoma
# OVCAR-4 ovarian = tested on: OVCAR-4 ovarian
# TK-10 renal = tested on: TK-10 renal
# SF-295 CNS = tested on: SF-295 CNS
# A549 NSCLC = tested on: A549 NSCLC
# BT-549 breast = tested on: BT-549 breast
# HS 578T breast = tested on: HS 578T breast
# EKVX NSCLC = tested on: EKVX NSCLC
# A498 renal = tested on: A498 renal
# MDA-MB-435 = tested on: MDA-MB-435
# NCI/ADR-RES ovarian = tested on: NCI/ADR-RES ovarian
# T-47D breast = tested on: T-47D breast
# SNB-19 CNS = tested on: SNB-19 CNS
# MCF7 breast = tested on: MCF7 breast
# PC-3 prostate = tested on: PC-3 prostate
# MDA-MB-231 breast = tested on: MDA-MB-231 breast
# HT29 colon = tested on: HT29 colon
# 786-0 renal = tested on: 786-0 renal
# UO-31 renal = tested on: UO-31 renal
# NCI-H460 lung = tested on: NCI-H460 lung
# COLO 205 colon = tested on: COLO 205 colon
# DU-145 prostate = tested on: DU-145 prostate
smiles,measurement,setting,value
CC1NS(=O)(=O)N(C)C1=O (stereo not drawn),TGI,OVCAR-3 ovarian,> 100 µM
same,TGI,MOLT-4 leukemia,> 100 µM
same,TGI,NCI-H522 lung,> 100 µM
same,TGI,ACHN renal,> 100 µM
same,TGI,HOP-62 NSCLC,> 100 µM
same,TGI,M19-MEL melanoma,> 100 µM
same,TGI,KM12 colon,> 100 µM
same,TGI,SR leukemia,> 100 µM
same,TGI,DLD-1 colon,> 100 µM
same,TGI,DMS 273 small cell lung,> 100 µM
same,TGI,DMS 114 small cell lung,> 100 µM
same,TGI,CCRF-CEM leukemia,> 100 µM
same,TGI,HL-60(TB) leukemia,> 100 µM
same,TGI,SK-MEL-28 melanoma,> 100 µM
same,TGI,SF-268 CNS,> 100 µM
same,TGI,NCI-H226 lung,> 100 µM
same,TGI,MALME-3M melanoma,> 100 µM
same,TGI,SN12C renal,> 100 µM
same,TGI,HCC-2998 colon,> 100 µM
same,TGI,RXF 393 renal,> 100 µM
same,TGI,SNB-75 CNS,> 100 µM
same,TGI,LXFL 529 NSCLC,> 100 µM
same,TGI,IGROV1 ovarian,> 100 µM
same,TGI,HCT-15 colon,> 100 µM
same,TGI,SK-MEL-5 melanoma,> 100 µM
same,TGI,SK-OV-3 ovarian,> 100 µM
same,TGI,M14 melanoma,> 100 µM
same,TGI,HCT-116 colon,> 100 µM
same,TGI,U251 CNS,> 100 µM
same,TGI,NCI-H23 lung,> 100 µM
same,TGI,RXF-631 renal,> 100 µM
same,TGI,XF 498 CNS,> 100 µM
same,TGI,SNB-78 CNS,> 100 µM
same,TGI,SW-620 colon,> 100 µM
same,TGI,K-562 leukemia,> 100 µM
same,TGI,CAKI-1 renal,> 100 µM
same,TGI,LOX IMVI melanoma,> 100 µM
same,TGI,OVCAR-8 ovarian,> 100 µM
same,TGI,SK-MEL-2 melanoma,> 100 µM
same,TGI,RPMI-8226 leukemia,> 100 µM
same,TGI,OVCAR-5 ovarian,> 100 µM
same,TGI,UACC-257 melanoma,> 100 µM
same,TGI,HOP-92 NSCLC,> 100 µM
same,TGI,SF-539 CNS,> 100 µM
same,TGI,UACC-62 melanoma,> 100 µM
same,TGI,OVCAR-4 ovarian,> 100 µM
same,TGI,TK-10 renal,> 100 µM
same,TGI,SF-295 CNS,> 100 µM
same,TGI,A549 NSCLC,> 100 µM
Nc1n[n+](=O)c2ccccc2n1O,TGI,OVCAR-3 ovarian,> 100 µM
same,GI50,BT-549 breast,19.3 µM
same,TGI,BT-549 breast,> 100 µM
same,GI50,HS 578T breast,> 100 µM
same,TGI,HS 578T breast,> 100 µM
same,TGI,EKVX NSCLC,> 100 µM
same,TGI,MOLT-4 leukemia,> 100 µM
same,TGI,NCI-H522 lung,> 100 µM
same,TGI,ACHN renal,> 100 µM
same,GI50,A498 renal,11.9 µM
same,TGI,A498 renal,> 100 µM
same,TGI,HOP-62 NSCLC,> 100 µM
same,TGI,M19-MEL melanoma,> 100 µM
same,GI50,MDA-MB-435,> 100 µM
same,TGI,MDA-MB-435,> 100 µM
same,TGI,KM12 colon,> 100 µM
same,GI50,SR leukemia,20.6 µM
same,TGI,SR leukemia,> 100 µM
same,TGI,DMS 273 small cell lung,> 100 µM
same,GI50,NCI/ADR-RES ovarian,55.2 µM
same,TGI,NCI/ADR-RES ovarian,> 100 µM
same,TGI,DMS 114 small cell lung,> 100 µM
same,TGI,CCRF-CEM leukemia,> 100 µM
same,GI50,T-47D breast,38.4 µM
same,TGI,T-47D breast,> 100 µM
same,TGI,SNB-19 CNS,> 100 µM
same,TGI,HL-60(TB) leukemia,> 100 µM
same,GI50,MCF7 breast,60.5 µM
same,TGI,MCF7 breast,> 100 µM
same,TGI,SK-MEL-28 melanoma,> 100 µM
same,TGI,SF-268 CNS,> 100 µM
same,TGI,NCI-H226 lung,> 100 µM
same,GI50,PC-3 prostate,94.3 µM
same,TGI,PC-3 prostate,> 100 µM
same,TGI,MALME-3M melanoma,> 100 µM
same,TGI,SN12C renal,> 100 µM
same,GI50,HCC-2998 colon,50.7 µM
same,TGI,HCC-2998 colon,> 100 µM
same,GI50,MDA-MB-231 breast,> 100 µM
same,TGI,MDA-MB-231 breast,> 100 µM
same,TGI,RXF 393 renal,> 100 µM
same,TGI,SNB-75 CNS,> 100 µM
same,TGI,LXFL 529 NSCLC,> 100 µM
same,TGI,HT29 colon,> 100 µM
same,TGI,IGROV1 ovarian,> 100 µM
same,TGI,HCT-15 colon,> 100 µM
same,TGI,SK-MEL-5 melanoma,> 65.7 µM
same,TGI,SK-OV-3 ovarian,> 100 µM
same,TGI,M14 melanoma,> 100 µM
same,GI50,HCT-116 colon,62.9 µM
same,TGI,HCT-116 colon,> 100 µM
same,TGI,U251 CNS,> 100 µM
same,TGI,786-0 renal,> 100 µM
same,GI50,NCI-H23 lung,29.6 µM
same,TGI,NCI-H23 lung,> 100 µM
same,TGI,RXF-631 renal,> 100 µM
same,TGI,UO-31 renal,> 100 µM
same,TGI,XF 498 CNS,> 100 µM
same,TGI,SNB-78 CNS,> 100 µM
same,TGI,SW-620 colon,> 100 µM
same,TGI,K-562 leukemia,> 100 µM
same,TGI,CAKI-1 renal,> 100 µM
same,TGI,LOX IMVI melanoma,> 100 µM
same,TGI,OVCAR-8 ovarian,> 100 µM
same,TGI,SK-MEL-2 melanoma,> 100 µM
same,TGI,RPMI-8226 leukemia,> 100 µM
same,TGI,NCI-H460 lung,> 100 µM
same,TGI,OVCAR-5 ovarian,> 100 µM
same,TGI,UACC-257 melanoma,> 100 µM
same,TGI,HOP-92 NSCLC,> 100 µM
same,TGI,SF-539 CNS,> 100 µM
same,TGI,COLO 205 colon,> 100 µM
same,TGI,UACC-62 melanoma,> 100 µM
same,TGI,OVCAR-4 ovarian,> 100 µM
same,GI50,DU-145 prostate,69.1 µM
same,TGI,DU-145 prostate,> 100 µM
same,TGI,TK-10 renal,> 100 µM
same,TGI,SF-295 CNS,> 100 µM
same,TGI,A549 NSCLC,> 100 µM
